Experimental data from ChEMBL document CHEMBL5728323, “1,4,5-substituted 1,2,3-triazole analogues as antagonists of the pregnane X receptor” (2021).

Assays:
[1] = Briefly, various concentrations (1-to-3 series dilutions for 10 concentration levels from 40 μM with 0.5% final DMSO concentration) of hPXR agonist rifampicin, various concentrations of tested chemicals alone or combined with 5 μM of rifampicin, were added to the wells of white 384-well tissue culture-treated plates with 5,000 cells in 25 μl of phenol red-free DMEM supplemented with 5% charcoal/dextran-treated FBS and incubated for 24 h at 37° C. before luciferase assay using Steadylite HTS (PerkinElmer Life Sciences).; type: cell-based; settings: HepG2

- IC50: 0.79 µM
- IC50 [1]: 3.1 µM
Compound: COc1ccc(OC)c(-c2nc(C)c(C(=O)c3ccc(C(C)(C)C)cc3)n2C)c1
